Experimental data published in patent publication US20090317373A1, “Inhibition of the Anti-FVIII Immune Response” (Institut National De La Sante Et De La Recherche Medicale, priority 2005, published 2009).

How the values were obtained:
[1] = tested on: DCs according to Example 1; assay: Internalization of demannosylated FVIII-BDD-FITC by DCs (FACS); type: cell-based, human
Description: Finally, the inhibition of the internalization of demannosylated FVIII-BDD labelled with FITC was measured. FVIII-BDD conjugated to FITC and treated with EndoF1 (0.143 μM) or untreated is incubated with DCs according to Example 1 (4×10^5 cells/well of 100 μl) in X-VIVO medium without serum at 37° C. or at 4° C. Beforehand, the cells were preincubated, where appropriate, with mannan (1 mg/ml) for 30 min at 37° C. After incubation for 2 hours, the cells are washed and the mean intensities (mfi) are measured by FACS. The internalization of FVIII-BDD is expressed with respect to the calculated mfi in the presence of untreated FVIII alone (cf. FIG. 8).

[2] = tested on: human DCs derived from monocytes; assay: In vitro internalization of fluorescent ligands by human DCs derived from monocytes (flow cytometry); type: cell-based
Description: DCs were prepared from monocytes as described previously (29) with a change in the culture media. Briefly, mononucleated cells were isolated from heparinized leukoplatelet layers (“buffy coats”) from healthy adult donors by adhesion on plastic cell culture dishes in RPMI 1640 medium supplemented with 10% human AB serum, glutamine and antibiotics for 60 minutes. Non-adhering cells were removed by 3 gentle washings with the medium. The adhering monocytes were cultured in X-VIVO 15 medium (Cambrex Bio Sciences, Paris, France) supplemented with 1% human AB serum and antibiotics and in the presence of 500 IU/ml of recombinant human interleukin-4 (rhIL-4), R&D Systems (Lille, France) and 1,000 IU/ml of recombinant human granulocyte macrophage colony-stimulating factor (rhGM-CSF), Immunotools (Friesoythe, Germany). Half of the medium, comprising all the supplements, was replaced every two days. After culture for 5 days, the non-adhering cells and those with little adhesion, corresponding to the fraction enriched in DC, were harvested, washed and used for subsequent experiments.
Whole recombinant human FVIII (1,000 IU, Kogenate, Bayer) or B domain-deleted recombinant human FVIII (FVIII-BDD) (1,000 IU, Refacto, Wyeth) were solubilized in water and dialyzed against bicarbonate buffer (pH 9.2) containing CaCl2, 5 mM at 4° C., followed by coupling to fluorescein 5-isothiocyanate (isomer I, Sigma-Aldrich, Saint Quentin Fallavier, France) for 7-8 hours at 4° C. The labelled FVIII was then dialyzed against RPMI 1640 medium to remove non-coupled FITC. The FVIII-FITC was quantified by the Bradford method using bovine serum albumin as the standard.
The DCs obtained in Example 1 (0.4×10^5 cells/well of a 96-well plate with 100 μl/well) were incubated with various doses (0.029, 0.057, 0.143 and 0.358 μM) of fluorescent conjugated ligands (FVIII-FITC, BDD-FVIII-FITC) obtained in Example 2 in X-VIVO medium for 0, 15, 60 and 120 min at 4° C. or at 37° C. After the incubation period, the cells were washed with cold PBS and analyzed by flow cytometry. To investigate the involvement of receptors in the internalization, the cells were preincubated for 30 min at 37° C. with […] and 1 mg/ml of mannan (Sigma-Aldrich, Saint Quentin Fallavier, France) before the addition of ligands conjugated to fluorescein. In addition to FVIII-FITC and FVIII-BDD-FITC, human α2-macroglobulin-MA (α2M) conjugated to FITC from Biomac (Leipzig, Germany), dextran-FITC (molecular weight 40,000) from Molecular Probes (Leiden, The Netherlands) and Lucifer yellow (LY-CH) from Sigma-Aldrich were used. The investigation of the internalization of FVIII was also carried out in the presence of 20 μg/ml of anti-mannose receptor monoclonal antibody (PAM-1, isotype IgG1) or anti-DC-SIGN monoclonal antibody ((AZN-D1, isotype IgG1) or mouse IgGλ,k conjugated to PE-Cy (BD Pharmingen, France). To investigate whether DC-SIGN is involved in the endocytosis of FVIII, the B lymphocyte line HD-420 transformed by wild-type EBV and transfected with DC-SIGN or not transfected was incubated with various concentrations of FVIII-FITC (0, 0.036, 0.072 and 0.143 μM) for 2 hours in RPMI 1640 medium supplemented with 10% FCS (foetal calf serum) and antibiotics. The analysis was carried out as for the DCs.

[3] = in the presence of mannan, FIG. 2d

mannan
further reduction of internalization of EndoF1-treated FVIII ([1]; in the presence of mannan, results not shown): 32% | inhibition of the internalization of FVIII-BDD ([1]; with mannan (1 mg/ml), without deglycosylation, FIG. 8): 45±7% | neutralizing effect on the internalization of the antigen (dose dependence) ([2]; FVIII, FVIII-BDD and dextran, FIG. 2e): proportional to the dose | inhibition of internalization of α2M ([2]; excess of RAP or mannan, FIG. 2f): no effect | blocking of internalization of dextran [2, 3]: 80% | effect on internalization of Lucifer yellow (ly) [2, 3]: not affected | inhibition of endocytosis of FVIII-BDD ([2]; mannan 1 mg/ml, p<0.05): 41.3±17.2% | inhibition of endocytosis of whole FVIII ([2]; mannan 1 mg/ml, p<0.05): 35.0±10.0% | saturation concentration for inhibition of internalization ([2]; similar for FVIII, FVIII-BDD and dextran, FIG. 2e): 100 µg/mL | reduction of endocytosis of FVIII by the human DCs ([2]; summary statement in Example 5): up to 40%
